Experimental data published in US11667652B2, “MCL1 inhibitors” (Gilead Sciences, Inc., priority 2019, dated 2023).
“And” between values parts separate entries of the source, which are not always exact repeats. Equal values may be shown once. Read-outs that look alike come from different tables or passages of the source.

What was measured:
SKBR3 cells = assay: SKBR3 Cell Viability Assay; format: cell-based; conditions: CellTiter Glo, read-out: MCL1 CV SKBR3 EC50
Method: SKBR3 Cell Viability Assay Materials
SKBR3 Cells (ATCC HTB-30) were obtained from ATCC (Manassas, Va.) and cultured in McCoy 5A's medium (ATCC 30-2007)+10% fetal bovine serum (SH30071.03, HyClone, Pittsburgh, Pa.) plus 1× Penicillin-Streptomycin L-glutamine (Corning 30-009-CI, Corning, N.Y.).
The cell viability assay was conducted in a 384-well tissue culture plate (Grenier 781086, Monroe, N.C.) in a total volume of 70 μL. Test compounds were prepared in 1,000×, serially diluted, and pre-spotted into 384-well tissue culture plate by Echo 555 Liquid Handler (Labcyte Inc., San Jose, Calif.). Seventy μL of 6,000 SKBR3 cells were dispensed into each well of the plate and incubated at 37° C. with 5% CO2 for 72 hours. At the end of incubation, 2× CellTiter Glo (CTG) reagents (1 part buffer with 2 parts substrate) (Promega, Madison, Wis.) were prepared, and the plate and the reagent were equilibrated to room temperature for 30 minutes. CTG reagent was added to each plate by Biomek FX at 20 μL/well with 5 times pipetting and mixing to induce cell lysis. Luminescence was read by Envision multimode reader (PerkinElmer). Percent inhibition was calculated as followed: % Inhibition=100%*(Well−Neg)/(Pos−Neg) Neg, negative control, DMSO Pos, positive control, 10 μM Puromycin

MCL1/Bim = MCL1/Bim (Homo sapiens (Human), UniProt Q07820); assay: MCL1/Bim Binding AlphaLISA Assay; conditions: recombinant human 6xHis-MCL1 (171-327), biotinylated Bim peptide (51-76)
MCL1/Bim, sequence (Q07820 171-327): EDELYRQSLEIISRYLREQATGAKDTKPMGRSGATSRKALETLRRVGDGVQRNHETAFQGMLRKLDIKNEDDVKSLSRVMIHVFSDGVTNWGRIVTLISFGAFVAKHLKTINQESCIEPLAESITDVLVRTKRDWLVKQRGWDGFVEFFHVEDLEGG
Method: MCL1/Bim Binding AlphaLISA Assay.
Inhibition of the MCL1 and Bim interaction was measured in the following AlphaLISA assay.
Recombinant human MCL1 protein (C-terminal 6×His Tagged MCL1 containing residues 171-327) was generated at Gilead Sciences, Inc. (Foster City, Calif.). A biotinylated peptide derived from human Bim (residues 51-76) was purchased from CPC Scientific (Sunnyvale, Calif.). (CPC 834113). AlphaLISA anti-6His- acceptor beads (AL128R), AlphaScreen Streptavidin donor beads (6760002B), and Proxiplate-384 Plus (6008289) were purchased from PerkinElmer.
The AlphaLISA assay was performed in a 384-well Proxiplate in a total volume of […]. The reaction mixture contained 0.0625 nM 6×His-MCL1 (171-327), 0.0625 nM biotinylated-Bim peptide, 10 μg/mL AlphaLISA anti-6×His-AlphaLISA acceptor beads, 40 μg/mL AlphaScreen streptavidin donor beads, and serially diluted test compounds in the binding buffer (20 mM Hepes, pH 7.5 (Teknova H1035); 150 mM NaCl (Promega V4221); 0.002% Brij 35 (Thermo Scientific 20150); 1 mM Dithiothreitol (DTT) Solution (Affymetrix 70726); 0.01% BSA (BioLabs B9000S)). 1,000× test compounds were pre-spotted onto 384-well Proxiplate (Labcyte Echo) by Echo 555 Liquid Handler (Labcyte Inc., San Jose, Calif.) followed by incubation of 5 μL MCL1(171-327) for 1 hour. Then 5 μL Bim (51-76) was added and incubated for 2 hours. Five μL AlphaLISA anti-6His-AlphaLISA acceptor beads were then added for 1 hour followed by addition of 5 μL AlphaScreen streptavidin donor beads for 1 hour. The reaction plates were then read on an Envision multimode reader (PerkinElmer) using AlphaScreen settings. Percent inhibition was calculated as shown below: % Inhibition=100%*(Well−Neg)/(Pos−Neg) Neg: negative control, DMSO Pos: positive control, no MCL1 protein, no biotinylated-Bim peptide

[1] = Homo sapiens, SK-BR-3, 72 hours

| Compound | EC50 (SKBR3 cells; 72 hours) [nM] | IC50 (MCL1/Bim) | EC50 (SKBR3 cells; [1]) [nM] |
| --- | --- | --- | --- |
| CO[C@H]1/C=C/C[C@H](C)C[S@@](=O)(Nc2cnccn2)=NC(=O)c2ccc3c(c2)N(C[C@@H]2CC[C@H]21)C[C@@]1(CCCc2cc(Cl)ccc21)CO3 [Example 1] | – | 0.221 nM | 1390 |
| CO[C@H]1/C=C/C[C@H](C)C[S@@](=O)(Nc2ncnc3c2cnn3C)=NC(=O)c2ccc3c(c2)N(C[C@@H]2CC[C@H]21)C[C@@]1(CCCc2cc(Cl)ccc21)CO3 [Example 4] | – | 0.196 nM | 240 |
| CO[C@H]1/C=C/C[C@H](C)C[S@@](=O)(Nc2cnc(C#N)cn2)=NC(=O)c2ccc3c(c2)N(C[C@@H]2CC[C@H]21)C[C@@]1(CCCc2cc(Cl)ccc21)CO3 [Example 5] | – | 0.584 nM | 4180 |
| CO[C@H]1/C=C/C[C@H](C)C[S@@](=O)(Nc2cncc(C#N)n2)=NC(=O)c2ccc3c(c2)N(C[C@@H]2CC[C@H]21)C[C@@]1(CCCc2cc(Cl)ccc21)CO3 [Example 6] | – | 0.891 nM | 4390 |
| CO[C@H]1/C=C/C[C@H](C)C[S@@](=O)(Nc2ncnc3nn(C)cc23)=NC(=O)c2ccc3c(c2)N(C[C@@H]2CC[C@H]21)C[C@@]1(CCCc2cc(Cl)ccc21)CO3 [Example 8] | – | 0.061 nM | 26.5 |
| CO[C@H]1/C=C/C[C@H](C)C[S@@](=O)(Nc2nc(Cl)nc3nn(C)cc23)=NC(=O)c2ccc3c(c2)N(C[C@@H]2CC[C@H]21)C[C@@]1(CCCc2cc(Cl)ccc21)CO3 [Example 9] | – | 0.11 nM | 170 |
| COc1nc(N[S@@]2(=O)=NC(=O)c3ccc4c(c3)N(C[C@@H]3CC[C@H]3[C@@H](OC)/C=C/C[C@H](C)C2)C[C@@]2(CCCc3cc(Cl)ccc32)CO4)c2cn(C)nc2n1 [Example 10] | – | 0.084 nM | 47.6 |
| CO[C@H]1/C=C/C[C@H](C)C[S@@](=O)(Nc2nc(C)nc3nn(C)cc23)=NC(=O)c2ccc3c(c2)N(C[C@@H]2CC[C@H]21)C[C@@]1(CCCc2cc(Cl)ccc21)CO3 [Example 12] | – | 0.129 nM | 38.7 |
| COc1nnc(NS2(=O)=NC(=O)c3ccc4c(c3)N(C[C@@H]3CC[C@H]3[C@@H](OC)/C=C/C[C@H](C)C2)C[C@@]2(CCCc3cc(Cl)ccc32)CO4)c2nn(C)cc12 (stereo partly shown) [Example 17] | 4550 | 2.39 nM | – |
| CNc1nc(N[S@@]2(=O)=NC(=O)c3ccc4c(c3)N(C[C@@H]3CC[C@H]3[C@@H](OC)/C=C/C[C@H](C)C2)C[C@@]2(CCCc3cc(Cl)ccc32)CO4)c2cn(C)nc2n1 [Example 18] | – | 0.042 nM | 19.6 |
| CO[C@H]1/C=C/C[C@H](C)C[S@@](=O)(Nc2nc(N(C)C)nc3nn(C)cc23)=NC(=O)c2ccc3c(c2)N(C[C@@H]2CC[C@H]21)C[C@@]1(CCCc2cc(Cl)ccc21)CO3 [Example 19] | – | 0.066 nM | 37.8 |
| CO[C@H]1/C=C/C[C@H](C)C[S@@](=O)(Nc2nc(NCCN3CCOCC3)nc3nn(C)cc23)=NC(=O)c2ccc3c(c2)N(C[C@@H]2CC[C@H]21)C[C@@]1(CCCc2cc(Cl)ccc21)CO3 [Example 20] | – | 0.313 nM | 41.3 |
| COc1ccc2c(N[S@@]3(=O)=NC(=O)c4ccc5c(c4)N(C[C@@H]4CC[C@H]4[C@@H](OC)/C=C/C[C@H](C)C3)C[C@@]3(CCCc4cc(Cl)ccc43)CO5)ncnc2c1 [Example 21] | – | 0.156 nM | 882 |
| COc1ncc2c(N[S@@]3(=O)=NC(=O)c4ccc5c(c4)N(C[C@@H]4CC[C@H]4[C@@H](OC)/C=C/C[C@H](C)C3)C[C@@]3(CCCc4cc(Cl)ccc43)CO5)ncnc2n1 [Example 22] | – | 0.121 nM | 169 |

Other lines, results leading:

| EC50 (SKBR3 cells; 72 hours) [nM] | IC50 (MCL1/Bim) | EC50 (SKBR3 cells; [1]) [nM] | Compound |
| --- | --- | --- | --- |
| 1210 | 0.142 nM | – | COc1nn(C)cc1C(=O)N[S@@]1(=O)=NC(=O)c2ccc3c(c2)N(C[C@@H]2CC[C@H]2/C=C/CC[C@H](C)C1)C[C@@]1(CCCc2cc(Cl)ccc21)CO3 (mixture of isomers) [Example 129] |
| 2560 | 0.46 nM | – | COc1nn(C)cc1C(=O)N[S@@]1(=O)=NC(=O)c2ccc3c(c2)N(C[C@@H]2CC[C@H]2C/C=C/C[C@H](C)C1)C[C@@]1(CCCc2cc(Cl)ccc21)CO3 (mixture of isomers) [Example 130] |
| 561 | 1.77 nM | – | CCCO[C@H]1/C=C/C[C@H](C)C[S@@](=O)(NC(=O)c2cn(C)nc2OC)=NC(=O)c2ccc3c(c2)N(C[C@@H]2CC[C@H]21)C[C@@]1(CCCc2cc(Cl)ccc21)CO3 (mixture of isomers) [Example 137] |
| 1050 | 1.54 nM | – | COc1nn(C)cc1C(=O)N[S@@]1(=O)=NC(=O)c2ccc3c(c2)N(C[C@@H]2CC[C@H]2[C@H]2OCCCC2CC[C@H](C)C1)C[C@@]1(CCCc2cc(Cl)ccc21)CO3 (mixture of isomers) [Example 138] |
| – | 0.035 nM | 114 | COc1nn(C)cc1C(=O)N[S@@]1(=O)=NC(=O)c2ccc3c(c2)N(C[C@@H]2CC[C@H]2[C@H]2OC(O)C[C@@H]2CC[C@H](C)C1)C[C@@]1(CCCc2cc(Cl)ccc21)CC3 (mixture of isomers) [Example 150] |
| – | 0.072 nM | 88.9 | COc1nn(C)cc1C(=O)N[S@@]1(=O)=NC(=O)c2ccc3c(c2)N(C[C@@H]2CC[C@H]2[C@H]2OCC[C@@H]2C[C@H](OC)[C@H](C)C1)C[C@@]1(CCCc2cc(Cl)ccc21)CO3 (mixture of isomers) [Example 155] |
| – | 0.06 nM | 31.9 | CO[C@H]1/C=C/C[C@H](C)C[S@@](=O)(NC(=O)N[C@H]2C[C@@H]2OC)=NC(=O)c2ccc3c(n2)N(C[C@@H]2CC[C@H]21)C[C@@]1(CCCc2cc(Cl)ccc21)CO3 (mixture of isomers) [Example 188] |
| – | 0.04 nM | 81.4 | COc1nn(C)cc1C(=O)N[S@@]1(=O)=NC(=O)c2ccc3c(n2)N(C[C@@H]2CC[C@H]2[C@@H](OC)/C=C/[C@H](O)[C@H](C)C1)C[C@@]1(CCCc2cc(Cl)ccc21)CO3 (mixture of isomers) [Example 196] |
| – | 0.083 nM | 17.3 | CO[C@H]1/C=C/C[C@H](C)C[S@@](=O)(NC(=O)c2cn(C)nc2N2CCN3CCOC[C@@H]3C2)=NC(=O)c2ccc3c(c2)N(C[C@@H]2CC[C@H]21)C[C@@]1(CCCc2cc(Cl)ccc21)CO3 [Example 23] |
| – | 0.026 nM | 10.3 | CO[C@H]1/C=C/C[C@H](C)C[S@@](=O)(NC(=O)c2cn(C)nc2N2CCN(C3COC3)CC2)=NC(=O)c2ccc3c(c2)N(C[C@@H]2CC[C@H]21)C[C@@]1(CCCc2cc(Cl)ccc21)CO3 [Example 24] |
| – | 0.224 nM and 0.233 nM | 119 | CO[C@H]1/C=C/CCC[S@@](=O)(Nc2ncnc3nn(C)cc23)=NC(=O)c2ccc3c(c2)N(C[C@@H]2CC[C@H]21)C[C@@]1(CCCc2cc(Cl)ccc21)CO3 [Example 26] |
| – | 0.103 nM | 40 | CO[C@@H]1/C=C\C[C@H](C)C[S@@](=O)(Nc2ncnc3nn(C)cc23)=NC(=O)c2ccc3c(c2)N(C[C@@H]2CC[C@H]21)C[C@@]1(CCCc2cc(Cl)ccc21)CO3 [Example 27] |
| – | 0.038 nM | 15.3 | C[C@H]1C/C=C/[C@H](O)[C@@H]2CC[C@H]2CN2C[C@@]3(CCCc4cc(Cl)ccc43)COc3ccc(cc32)C(=O)N=[S@](=O)(Nc2ncnc3nn(C)cc23)C1 [Example 29] |
| – | 0.03 nM | 930 | C[C@H]1C/C=C/[C@H](O)[C@@H]2CC[C@H]2CN2C[C@@]3(CCCc4cc(Cl)ccc43)COc3ccc(cc32)C(=O)N=[S@](=O)(Nc2nc(Cl)nc3nn(C)cc23)C1 [Example 30] |
| – | 0.057 nM | 18.5 | C[C@H]1C/C=C/[C@H](O)[C@@H]2CC[C@H]2CN2C[C@@]3(CCCc4cc(Cl)ccc43)COc3ccc(cc32)C(=O)N=[S@](=O)(Nc2nc(N)nc3nn(C)cc23)C1 [Example 32] |
